Measured values reported in patent US12059422B2 (MEI Pharma, Inc., priority 2011, dated 2024).
pIC50: −log10 of the molar value.

Legend:
[1] = molecular target: mTOR (Homo sapiens, UniProt P42345); assay: mTOR inhibition (Table 1); format: biochemical; conditions: Table 1, no method described
[2] = molecular target: T1, PI3K alpha (Homo sapiens, UniProt P42336); assay: Luciferase-based luminescence assay (KinaseGlo), PI3K alpha enzymatic activity; format: biochemical; conditions: inhibition of enzymatic activity, 25 μM ATP, read-out: IC50 p110α
T1 construct: purchased Invitrogen Corp., Carlsbad, CA, USA
T1 sequence (P42336 whole entry, species assumed): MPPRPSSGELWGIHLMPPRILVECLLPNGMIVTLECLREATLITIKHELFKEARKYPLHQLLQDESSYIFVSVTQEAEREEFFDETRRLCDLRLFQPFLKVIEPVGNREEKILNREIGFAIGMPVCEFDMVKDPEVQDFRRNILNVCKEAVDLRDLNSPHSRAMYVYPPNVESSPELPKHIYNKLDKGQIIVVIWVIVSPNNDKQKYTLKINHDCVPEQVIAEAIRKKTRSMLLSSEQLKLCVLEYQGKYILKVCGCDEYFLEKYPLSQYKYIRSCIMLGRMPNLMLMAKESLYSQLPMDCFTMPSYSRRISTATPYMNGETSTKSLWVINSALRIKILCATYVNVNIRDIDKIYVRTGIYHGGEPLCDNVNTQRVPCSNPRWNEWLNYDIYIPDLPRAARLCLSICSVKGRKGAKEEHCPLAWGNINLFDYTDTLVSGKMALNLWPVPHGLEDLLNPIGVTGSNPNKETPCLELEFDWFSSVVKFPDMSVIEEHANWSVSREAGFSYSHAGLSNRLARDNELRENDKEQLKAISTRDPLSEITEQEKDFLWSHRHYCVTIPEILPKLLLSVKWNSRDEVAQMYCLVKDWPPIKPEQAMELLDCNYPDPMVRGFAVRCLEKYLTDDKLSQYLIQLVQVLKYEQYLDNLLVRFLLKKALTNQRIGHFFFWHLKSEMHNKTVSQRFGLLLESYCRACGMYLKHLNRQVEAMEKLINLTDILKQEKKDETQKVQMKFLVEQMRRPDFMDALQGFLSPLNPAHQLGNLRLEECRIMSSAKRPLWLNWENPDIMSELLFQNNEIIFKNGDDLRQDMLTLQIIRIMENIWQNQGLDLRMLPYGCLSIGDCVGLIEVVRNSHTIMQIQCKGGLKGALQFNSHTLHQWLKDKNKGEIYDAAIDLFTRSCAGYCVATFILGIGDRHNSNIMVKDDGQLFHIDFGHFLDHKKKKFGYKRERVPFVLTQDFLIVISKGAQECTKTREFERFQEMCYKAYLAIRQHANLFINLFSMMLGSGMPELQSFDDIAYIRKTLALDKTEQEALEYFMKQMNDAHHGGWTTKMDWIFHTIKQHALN
T1 sequence (P27986 whole entry partner, species assumed): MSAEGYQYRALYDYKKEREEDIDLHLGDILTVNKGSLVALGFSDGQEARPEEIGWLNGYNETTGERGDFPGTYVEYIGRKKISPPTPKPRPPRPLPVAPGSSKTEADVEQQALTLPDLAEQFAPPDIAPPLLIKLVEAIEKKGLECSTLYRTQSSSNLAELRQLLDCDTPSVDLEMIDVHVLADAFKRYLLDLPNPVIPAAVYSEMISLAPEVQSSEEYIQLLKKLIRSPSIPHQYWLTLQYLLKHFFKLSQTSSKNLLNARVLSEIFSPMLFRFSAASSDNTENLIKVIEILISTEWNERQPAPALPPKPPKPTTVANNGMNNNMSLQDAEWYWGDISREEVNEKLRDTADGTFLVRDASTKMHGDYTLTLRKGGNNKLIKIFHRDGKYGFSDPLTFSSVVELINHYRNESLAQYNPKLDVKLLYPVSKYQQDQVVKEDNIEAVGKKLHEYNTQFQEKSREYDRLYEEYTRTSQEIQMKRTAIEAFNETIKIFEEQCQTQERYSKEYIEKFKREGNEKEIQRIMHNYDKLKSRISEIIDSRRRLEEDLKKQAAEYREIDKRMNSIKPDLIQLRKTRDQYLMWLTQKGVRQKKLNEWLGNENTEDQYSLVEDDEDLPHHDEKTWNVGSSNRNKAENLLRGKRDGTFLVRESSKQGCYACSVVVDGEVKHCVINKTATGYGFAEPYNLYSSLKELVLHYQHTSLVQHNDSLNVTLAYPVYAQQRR
Procedure: (§1) PI3K catalyzes the conversion of phosphatidylinositol-4,5-bisphosphate (PIP2) and ATP to phosphatidylinositol-3,4,5-trisphosphate (PIP3) and ADP. For all assays, the reaction buffer comprised 50 mM HEPES, pH 7.5, 3 mM MgCl2, 1 mM EGTA, 100 mM NaCl, 0.03% CHAPS and 2 mM DTT. Compounds for testing were dissolved and serially diluted in 100% DMSO (total of 10 concentrations), then diluted 1:25 in reaction buffer.
(§2) PI3K alpha and PI3K delta enzymatic activity was determined by measuring the amount of ATP consumed following the kinase reaction using a luciferase-based luminescence assay (KinaseGlo®, Promega Corp., Madison, WI, USA). PI3K enzyme solutions were prepared by diluting PI3K alpha (Invitrogen Corp., Carlsbad, CA, USA) or PI3K delta (Millipore, Billerica, MA, USA) in reaction buffer, to 4× the final assay concentration (final concentrations of enzymes were 1.65 nM and 6.86 nM for PI3K alpha and PI3K delta, respectively). A substrate solution was prepared by mixing PIP2 and ATP in reaction buffer at 2× the final assay concentration (final concentrations were 50 μM and 25 μM for PIP2 and ATP respectively). 2.5 μL each of the compound and kinase mixtures were added to individual wells of white low volume 384-well assay plates and mixed by shaking. The reactions were started by adding 5 μL of substrate mixture per well and shaking. The assay plates were covered and reactions were allowed to proceed for 1 hour (PI3K alpha) or 2 hours (PI3K delta), after which 10 μL of Kinase Glo® reagent was added. The plates were briefly centrifuged and incubated for 10 minutes, after which luminescence was measured using a FlexStation plate reader (Molecular Devices, Sunnyvale, CA, USA). IC50 values were determined by curve fitting using Graphpad Prism software (Graphpad Software, La Jolla, CA, USA).

[3] = molecular target: T2, PI3K beta (Homo sapiens, UniProt P42338); assay: Luciferase-based luminescence assay (ADP Glo), PI3K beta enzymatic activity; format: biochemical; conditions: for pIC50: inhibition of enzymatic activity, ADP Glo, 25 μM ATP, read-out: IC50 p110β; for α/β ratio: ratio of enzymatic IC50 values, Table 1
T2 construct: purchased Millipore, Billerica, MA, USA
T2 sequence (P42338 whole entry, species assumed): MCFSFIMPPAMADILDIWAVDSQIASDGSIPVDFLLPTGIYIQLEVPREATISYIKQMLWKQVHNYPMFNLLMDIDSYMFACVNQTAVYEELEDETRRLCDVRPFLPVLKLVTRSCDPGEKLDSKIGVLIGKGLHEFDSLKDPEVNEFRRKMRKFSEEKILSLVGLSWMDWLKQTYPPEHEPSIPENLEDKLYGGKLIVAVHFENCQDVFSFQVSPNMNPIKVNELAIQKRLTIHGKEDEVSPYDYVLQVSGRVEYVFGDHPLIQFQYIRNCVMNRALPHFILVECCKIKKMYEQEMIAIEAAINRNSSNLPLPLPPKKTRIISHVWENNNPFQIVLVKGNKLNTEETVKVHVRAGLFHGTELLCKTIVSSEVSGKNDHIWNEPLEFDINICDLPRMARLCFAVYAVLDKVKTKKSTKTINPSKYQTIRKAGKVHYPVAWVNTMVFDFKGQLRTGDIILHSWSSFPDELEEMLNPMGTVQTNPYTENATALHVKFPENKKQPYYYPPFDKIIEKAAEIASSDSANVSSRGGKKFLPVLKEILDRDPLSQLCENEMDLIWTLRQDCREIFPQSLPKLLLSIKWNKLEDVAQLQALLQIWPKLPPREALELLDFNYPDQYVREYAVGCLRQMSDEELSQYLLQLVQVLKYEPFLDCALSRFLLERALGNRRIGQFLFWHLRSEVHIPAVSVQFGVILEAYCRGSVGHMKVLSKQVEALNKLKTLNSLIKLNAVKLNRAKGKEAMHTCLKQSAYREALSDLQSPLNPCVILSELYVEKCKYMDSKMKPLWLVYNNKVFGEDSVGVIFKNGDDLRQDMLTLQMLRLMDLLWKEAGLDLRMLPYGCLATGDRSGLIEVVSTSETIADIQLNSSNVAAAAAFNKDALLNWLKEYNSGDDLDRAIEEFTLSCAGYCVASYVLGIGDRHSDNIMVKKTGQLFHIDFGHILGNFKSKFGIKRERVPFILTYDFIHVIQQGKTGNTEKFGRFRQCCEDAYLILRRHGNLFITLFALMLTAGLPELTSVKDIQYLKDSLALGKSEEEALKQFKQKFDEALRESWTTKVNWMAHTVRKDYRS
T2 sequence (P27986 whole entry partner, species assumed): as the sequence (P27986 whole entry partner, species assumed) above
Procedure: as §1
(§3) PI3K beta and gamma enzymatic activity was determined by measuring the amount of ADP produced following the kinase reaction using a luciferase-based luminescence assay (ADP Glo®, Promega Corp., Madison, WI, USA). PI3K enzyme solutions were prepared by diluting PI3K beta (Millipore, Billerica, MA, USA) or PI3K gamma (Invitrogen Corp., Carlsbad, CA, USA) in reaction buffer, to 4× the final assay concentration (final concentrations of enzymes were 4.8 nM and 7.6 nM for PI3K beta and PI3K gamma respectively). A substrate solution was prepared by mixing PIP2 and ATP in reaction buffer at 2× the final assay concentration (final concentrations were 50 μM and 25 μM for PIP2 and ATP respectively). 2.5 μL each of the compound and kinase mixtures were added to individual wells of white low volume 384-well assay plates and mixed by shaking. The reactions were started by adding 5 μL of substrate mixture per well and shaking. The assay plates were covered and reactions were allowed to proceed for 1 hour. Then, 5 μL of reaction mix was transferred to another white low volume 384-well plate, and 5 μL of ADP-Glo™ reagent was added. The plates were briefly centrifuged and incubated for 40 minutes, after which 10 μL of kinase detection buffer was added. The plates then were centrifuged briefly, shaken slowly and equilibrated at room temperature for 30 minutes, after which luminescence was measured using a FlexStation plate reader (Molecular Devices, Sunnyvale, CA, USA). IC50 values were determined by curve fitting using Graphpad Prism software (Graphpad Software, La Jolla, CA, USA).

[4] = molecular target: T3, PI3K gamma (Homo sapiens, UniProt P48736); assay: Luciferase-based luminescence assay (ADP Glo), PI3K gamma enzymatic activity; format: biochemical; conditions: inhibition of enzymatic activity, 25 μM ATP, read-out: IC50 p110γ
T3 construct: purchased Invitrogen Corp., Carlsbad, CA, USA
T3 sequence (P48736 whole entry, species assumed): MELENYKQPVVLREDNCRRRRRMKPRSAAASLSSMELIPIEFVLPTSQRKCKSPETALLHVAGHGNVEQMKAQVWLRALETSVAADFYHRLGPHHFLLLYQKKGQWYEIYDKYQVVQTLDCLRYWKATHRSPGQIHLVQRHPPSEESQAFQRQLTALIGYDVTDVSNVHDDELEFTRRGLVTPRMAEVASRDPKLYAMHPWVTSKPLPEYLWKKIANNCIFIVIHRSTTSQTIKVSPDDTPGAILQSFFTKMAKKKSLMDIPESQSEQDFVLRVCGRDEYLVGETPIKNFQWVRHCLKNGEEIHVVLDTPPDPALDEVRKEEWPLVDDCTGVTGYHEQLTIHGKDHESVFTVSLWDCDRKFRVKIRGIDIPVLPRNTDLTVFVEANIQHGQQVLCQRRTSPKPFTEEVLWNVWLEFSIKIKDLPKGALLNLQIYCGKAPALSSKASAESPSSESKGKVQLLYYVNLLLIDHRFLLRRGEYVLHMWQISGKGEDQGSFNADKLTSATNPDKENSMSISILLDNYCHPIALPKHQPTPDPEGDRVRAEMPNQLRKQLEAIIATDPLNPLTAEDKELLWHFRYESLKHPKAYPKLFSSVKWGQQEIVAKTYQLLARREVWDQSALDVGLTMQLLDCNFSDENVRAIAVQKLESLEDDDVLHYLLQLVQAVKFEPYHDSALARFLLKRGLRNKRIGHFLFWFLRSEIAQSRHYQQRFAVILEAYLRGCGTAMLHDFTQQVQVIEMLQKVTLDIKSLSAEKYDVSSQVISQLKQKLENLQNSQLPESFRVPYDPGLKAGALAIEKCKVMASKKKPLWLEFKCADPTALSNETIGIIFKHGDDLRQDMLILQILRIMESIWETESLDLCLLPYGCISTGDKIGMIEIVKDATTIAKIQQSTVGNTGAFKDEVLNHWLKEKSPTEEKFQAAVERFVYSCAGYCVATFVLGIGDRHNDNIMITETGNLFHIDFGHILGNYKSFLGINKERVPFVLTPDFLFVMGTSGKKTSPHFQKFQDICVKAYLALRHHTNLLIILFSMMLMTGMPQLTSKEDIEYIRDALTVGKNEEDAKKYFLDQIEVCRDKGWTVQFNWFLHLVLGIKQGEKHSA
Procedure: as §1, §3

[5] = molecular target: T4, PI3K delta (Homo sapiens, UniProt O00329); assay: Luciferase-based luminescence assay (KinaseGlo), PI3K delta enzymatic activity; format: biochemical; conditions: for pIC50: inhibition of enzymatic activity, KinaseGlo, 25 μM ATP, read-out: IC50 p110δ; for α/δ ratio: ratio of enzymatic IC50 against PI3Kα over IC50 against PI3Kδ; for β/δ ratio / γ/δ ratio: ratio of enzymatic IC50 values, Table 1
T4 construct: purchased Millipore, Billerica, MA, USA
T4 sequence (O00329 whole entry, species assumed): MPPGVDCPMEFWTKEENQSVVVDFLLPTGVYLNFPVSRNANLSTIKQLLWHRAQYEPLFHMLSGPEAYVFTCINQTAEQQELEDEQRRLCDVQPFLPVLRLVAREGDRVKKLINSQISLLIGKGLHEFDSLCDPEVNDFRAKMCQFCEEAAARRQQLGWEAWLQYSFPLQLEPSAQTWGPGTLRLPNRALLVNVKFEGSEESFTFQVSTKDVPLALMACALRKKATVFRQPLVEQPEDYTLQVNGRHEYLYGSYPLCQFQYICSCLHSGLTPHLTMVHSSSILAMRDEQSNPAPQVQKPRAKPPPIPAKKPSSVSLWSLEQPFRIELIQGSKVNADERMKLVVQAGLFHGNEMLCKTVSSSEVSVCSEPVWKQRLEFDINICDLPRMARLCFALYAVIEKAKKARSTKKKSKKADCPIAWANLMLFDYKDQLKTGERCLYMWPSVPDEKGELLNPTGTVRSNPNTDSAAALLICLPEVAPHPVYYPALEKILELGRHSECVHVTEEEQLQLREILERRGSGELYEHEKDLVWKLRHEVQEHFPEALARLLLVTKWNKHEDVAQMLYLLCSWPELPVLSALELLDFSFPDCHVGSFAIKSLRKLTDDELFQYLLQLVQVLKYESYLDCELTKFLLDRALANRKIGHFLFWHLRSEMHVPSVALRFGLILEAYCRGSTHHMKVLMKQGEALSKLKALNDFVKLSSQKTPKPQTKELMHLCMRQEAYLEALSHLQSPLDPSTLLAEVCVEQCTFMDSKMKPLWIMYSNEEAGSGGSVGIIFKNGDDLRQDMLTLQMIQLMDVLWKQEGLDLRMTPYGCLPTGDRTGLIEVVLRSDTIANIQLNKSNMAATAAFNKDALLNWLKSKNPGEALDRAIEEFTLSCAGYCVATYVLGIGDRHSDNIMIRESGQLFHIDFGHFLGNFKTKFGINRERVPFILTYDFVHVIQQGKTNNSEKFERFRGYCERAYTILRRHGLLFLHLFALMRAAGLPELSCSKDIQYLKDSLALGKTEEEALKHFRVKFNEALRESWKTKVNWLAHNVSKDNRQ
T4 sequence (P27986 whole entry partner, species assumed): as the sequence (P27986 whole entry partner, species assumed) above
Procedure: as §1, §2

[6] = molecular target: T5, PI3Kδ (Homo sapiens, UniProt O00329); assay: ELISA assay for PI3Kδ: sandwich ELISA, phosphorylation of AKT (Thr308) in Raji cells; format: cell-based; conditions: cellular, pAKT (Thr308), Raji cells, anti-Human IgM stimulation; read-out: IC50 p110δ
T5 construct: endogenous in cells; host or cells: Raji (ATCC #CCL-86)
Procedure: Cellular PI3Kδ activity was determined by measuring the phosphorylation of AKT (Thr308) using a sandwich enzyme-linked immunosorbant assay (ELISA). Raji (Burkitt's Lymphoma) cells were obtained from ATCC (ATCC #CCL-86). Phosphate buffer saline (PBS) contained 2.7 M NaCl, 54 mM KCl, 86 mM […] (dibasic, anhydrous), and 28 mM […] (monobasic, anhydrous) at pH 7.2. Wash buffer contained PBS supplemented with 0.05% Tween-20. Blocking buffer contained wash buffer supplemented with 1% BSA. A 10× stimulation mixture contained 5 μg/mL anti-Human IgM antibody (Sigma #12386) diluted in serum-free RPMI medium (CellGro #CV-10-040-CV). Compounds for testing were dissolved and serially diluted in 100% DMSO (total of 10 concentrations), and then diluted in serum-free RPMI to 5×final assay concentration.
Raji cells were subcultured in RPMI medium supplemented with 10% fetal bovine serum, 100 IU/mL penicillin, 100 μg/mL streptomycin, and 1×MEM non-essential amino acids. Sandwich ELISA plates were prepared by coating 96-well assay plates (Pierce #15042) with 100 μL/well capture antibody (Cell Signaling Technology #7142 or 7144) diluted in PBS. Plates were incubated overnight at 4° C., then washed with wash buffer, after which 200 μL/well blocking buffer was added to the plates and incubated at room temperature for at least 2 hrs. Raji cells were resuspended in serum-free RPMI medium and seeded into V-bottom, 2-mL 96-well blocks (Corning #3961) at 10^6 cells/well, then incubated for 2 hrs in a 37° C., 5% CO2 incubator. Compound treatment was performed by adding the 5× compound mixture to the cells and incubating for 2 hrs at 37° C., 5% CO2, after which the 10× stimulation mixture was added to the plates and incubated for 30 min at 37° C., 5% CO2. Cells were pelleted by centrifuging plates at 1500 RPM for 5 min at room temperature. Media was carefully removed and cells were lysed by adding 100 μL/well cell lysis buffer (Cell Signaling Technology #9803) supplemented with protease and phosphatase inhibitors (Thermo Fisher #78443). Plates were incubated on ice for 30 min, then the lysates (80 μL for pAKT^T308, 10 μL for total AKT) were transferred to prepared assay plates and incubated at 4° C. overnight. After washing plates with wash buffer, 100 μL/well detection antibody (Cell Signaling Technology #7142 or 7144) diluted in blocking buffer was added to the plates and incubated for 1 hr at 37° C. Plates were washed and 100 μL/well of HRP-conjugated secondary antibody (Cell Signaling Technology #7142 or 7144) diluted in blocking buffer was added to plates and incubated for 1 hr at room temperature. Plates were washed with wash buffer and 100 μL/well of luminescent substrate was added to plates. After 1 min on a plate shaker at medium speed, luminescence was read on a Wallac Victor2 plate reader. IC50 values were determined by curve fitting using a Collaborative Drug Discovery database (www.collaborativedrug.com).

Row | Structure (SMILES) | pIC50 [1] | pIC50 [2] | pIC50 [3] | α/β ratio [3] | pIC50 [4] | pIC50 [5] | α/δ ratio [5] | β/δ ratio [5] | γ/δ ratio [5] | pIC50 [6]
1 | CC(C)(Cc1cccc(Cl)c1)Nc1nc(N2CCOCC2)nc(-n2c(C(F)F)nc3ccccc32)n1 [Compound A20, N-(1-(3-chlorophenyl)-2-methylpropan-2-yl)-4-(2-(difluoromethyl)-1H-benzo[d]imidazol-1-yl)-6-morpholino-1,3,5-triazin-2-amine] | < 6.30 | < 6.30 | 6.70 to 7.00 | A’ | < 6.30 | 6.70 to 7.00 | A’ | D’ | C’ | –
2 | COc1ccc(CC(C)(C)Nc2nc(N3CCOCC3)nc(-n3c(C(F)F)nc4ccccc43)n2)cc1 [Compound A25, 4-(2-(difluoromethyl)-1H-benzo[d]imidazol-1-yl)-N-(1-(4-methoxyphenyl)-2-methylpropan-2-yl)-6-morpholino-1,3,5-triazin-2-amine] | < 6.30 | < 6.30 | < 6.30 | D’ | < 6.30 | 6.30 to 6.70 | D’ | A’ | D’ | ≥ 7.00
3 | CC(C)(CNc1nc(N2CCOCC2)nc(-n2c(C(F)F)nc3ccccc32)n1)c1ccccc1 [Compound A29, 4-(2-(difluoromethyl)-1H-benzo[d]imidazol-1-yl)-N-(2-methyl-2-phenylpropyl)-6-morpholino-1,3,5-triazin-2-amine] | < 6.30 | < 6.30 | < 6.30 | D’ | < 6.30 | 6.30 to 6.70 | C’ | A’ | D’ | –
4 | CC(C)(Nc1nc(N2CCOCC2)nc(-n2c(C(F)F)nc3ccccc32)n1)C1(c2ccccc2)CC1 [Compound A30, 4-(2-(difluoromethyl)-1H-benzo[d]imidazol-1-yl)-N-(2-(1-phenylcyclopropyl)propan-2-yl)-6-morpholino-1,3,5-triazin-2-amine] | < 6.30 | < 6.30 | 6.30 to 6.70 | B’ | < 6.30 | 6.70 to 7.00 | A’ | D’ | D’ | –
5 | CC(C)(Nc1nc(N2CCOCC2)nc(-n2c(C(F)F)nc3ccccc32)n1)c1ccccc1 [Compound A7, 4-(2-(difluoromethyl)-1H-benzo[d]imidazol-1-yl)-6-morpholino-N-(2-phenylpropan-2-yl)-1,3,5-triazin-2-amine] | < 6.30 | < 6.30 | < 6.30 | D’ | 6.30 to 6.70 | 6.70 to 7.00 | C’ | A’ | D’ | –
6 | CC(C)(Cc1ccc2ccccc2c1)Nc1nc(N2CCOCC2)nc(-n2c(C(F)F)nc3ccccc32)n1 [Compound A26, 4-(2-(difluoromethyl)-1H-benzo[d]imidazol-1-yl)-N-(2-methyl-1-(naphthalen-2-yl)propan-2-yl)-6-morpholino-1,3,5-triazin-2-amine] | < 6.30 | 6.30 to 6.70 | ≥ 7.00 | C’ | 6.70 to 7.00 | 6.70 to 7.00 | D’ | D’ | D’ | –
7 | CC(C)(Cc1ccccc1-c1ccccc1)Nc1nc(N2CCOCC2)nc(-n2c(C(F)F)nc3ccccc32)n1 [Compound A47, 4-(2-(difluoromethyl)-1H-benzo[d]imidazol-1-yl)-N-(1-(biphenyl-2-yl)-2-methylpropan-2-yl)-6-morpholino-1,3,5-triazin-2-amine] | < 6.30 | 6.30 to 6.70 | 6.70 to 7.00 | D’ | < 6.30 | ≥ 7.00 | A’ | B’ | A’ | –
8 | C[C@H](Nc1nc(N2CCOCC2)nc(-n2c(C(F)F)nc3ccccc32)n1)c1ccccc1 [Compound A2, (S)-4-(2-(difluoromethyl)-1H-benzo[d]imidazol-1-yl)-6-morpholino-N-(1-phenylethyl)-1,3,5-triazin-2-amine] | < 6.30 | < 6.30 | < 6.30 | D’ | < 6.30 | 6.30 to 6.70 | D’ | A’ | D’ | –
9 | CC[C@H](Nc1nc(N2CCOCC2)nc(-n2c(C(F)F)nc3ccccc32)n1)c1ccccc1 [Compound A5, (S)-4-(2-(difluoromethyl)-1H-benzo[d]imidazol-1-yl)-6-morpholino-N-(1-phenylpropyl)-1,3,5-triazin-2-amine] | < 6.30 | < 6.30 | < 6.30 | D’ | 6.70 to 7.00 | 6.30 to 6.70 | C’ | C’ | D’ | –
